#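 The concentration for 50% growth inhibition is given as GI50. TGI marks complete inhibition of growth.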
# Legend:
# Test in all cases: DTP human tumour cell line panel, 384-well format
# HCT-116 colon = system: HCT-116 colon
# OVCAR-8 ovarian = system: OVCAR-8 ovarian
# OVCAR-3 ovarian = system: OVCAR-3 ovarian
# MALME-3M melanoma = system: MALME-3M melanoma
# HOP-62 NSCLC = system: HOP-62 NSCLC
# MDA-MB-435 melanoma = system: MDA-MB-435 melanoma
# SK-OV-3 ovarian = system: SK-OV-3 ovarian
# SF-539 CNS = system: SF-539 CNS
# MCF7 breast = system: MCF7 breast
# A549 NSCLC = system: A549 NSCLC
# U251 glioblastoma = system: U251 glioblastoma
# IGROV1 ovarian = system: IGROV1 ovarian
# BT-549 breast = system: BT-549 breast
# COLO 205 colon = system: COLO 205 colon
# NCI/ADR-RES ovarian = system: NCI/ADR-RES ovarian
# EKVX NSCLC = system: EKVX NSCLC
# T-47D breast = system: T-47D breast
# CAKI-1 renal = system: CAKI-1 renal
# SR leukemia = system: SR leukemia
# SF-295 CNS = system: SF-295 CNS
# ACHN renal = system: ACHN renal
# OVCAR-4 ovarian = system: OVCAR-4 ovarian
# SN12C renal = system: SN12C renal
# NCI-H522 lung = system: NCI-H522 lung
# SK-MEL-5 melanoma = system: SK-MEL-5 melanoma
# CCRF-CEM leukemia = system: CCRF-CEM leukemia
# SW-620 colon = system: SW-620 colon
# SK-MEL-28 melanoma = system: SK-MEL-28 melanoma
# MDA-MB-468 breast = system: MDA-MB-468 breast
# TK-10 renal = system: TK-10 renal
# UACC-62 melanoma = system: UACC-62 melanoma
# LOX IMVI melanoma = system: LOX IMVI melanoma
# SF-268 CNS = system: SF-268 CNS
# K-562 leukemia = system: K-562 leukemia
# NCI-H460 NSCLC = system: NCI-H460 NSCLC
# UACC-257 melanoma = system: UACC-257 melanoma
# NCI-H226 lung = system: NCI-H226 lung
# HCC-2998 colon = system: HCC-2998 colon
# 786-0 renal = system: 786-0 renal
# PC-3 prostate = system: PC-3 prostate
# HL-60(TB) leukemia = system: HL-60(TB) leukemia
# MDA-MB-231 breast = system: MDA-MB-231 breast
# HS 578T breast = system: HS 578T breast
# RPMI-8226 leukemia = system: RPMI-8226 leukemia
# NCI-H23 lung = system: NCI-H23 lung
# NCI-H322M lung = system: NCI-H322M lung
# HCT-15 colon = system: HCT-15 colon
# RXF 393 renal = system: RXF 393 renal
# MOLT-4 leukemia = system: MOLT-4 leukemia
# DU-145 prostate = system: DU-145 prostate
# UO-31 renal = system: UO-31 renal
smiles,measurement,setting,value
COc1ccc(/C=C\c2cc(OC)c(OC)c(OC)c2)cc1NC(=O)[C@@H](N)CO,GI50,HCT-116 colon,< 10 nM
same,TGI,HCT-116 colon,103 nM
same,GI50,OVCAR-8 ovarian,10.4 nM
same,TGI,OVCAR-8 ovarian,35.9 nM
same,GI50,OVCAR-3 ovarian,< 10 nM
same,TGI,OVCAR-3 ovarian,20.7 nM
same,GI50,MALME-3M melanoma,< 10 nM
same,TGI,MALME-3M melanoma,> 100000 nM
same,GI50,HOP-62 NSCLC,< 10 nM
same,TGI,HOP-62 NSCLC,196 nM
same,GI50,MDA-MB-435 melanoma,< 10 nM
same,TGI,MDA-MB-435 melanoma,< 10 nM
same,GI50,SK-OV-3 ovarian,< 10 nM
same,TGI,SK-OV-3 ovarian,12000 nM
same,GI50,SF-539 CNS,< 10 nM
same,TGI,SF-539 CNS,27.7 nM
same,GI50,MCF7 breast,24.4 nM
same,TGI,MCF7 breast,12700 nM
same,GI50,A549 NSCLC,< 10 nM
same,TGI,A549 NSCLC,> 100000 nM
same,GI50,U251 glioblastoma,< 10 nM
same,TGI,U251 glioblastoma,17900 nM
same,GI50,IGROV1 ovarian,< 10 nM
same,TGI,IGROV1 ovarian,35900 nM
same,GI50,BT-549 breast,< 10 nM
same,TGI,BT-549 breast,25.2 nM
same,GI50,COLO 205 colon,< 10 nM
same,TGI,COLO 205 colon,< 10 nM
same,GI50,NCI/ADR-RES ovarian,< 10 nM
same,TGI,NCI/ADR-RES ovarian,< 10 nM
same,GI50,EKVX NSCLC,< 10 nM
same,TGI,EKVX NSCLC,> 100000 nM
same,GI50,T-47D breast,< 10 nM
same,TGI,T-47D breast,68600 nM
same,GI50,CAKI-1 renal,< 10 nM
same,TGI,CAKI-1 renal,> 100000 nM
same,GI50,SR leukemia,< 10 nM
same,TGI,SR leukemia,< 10 nM
same,GI50,SF-295 CNS,< 10 nM
same,TGI,SF-295 CNS,< 10 nM
same,GI50,ACHN renal,< 10 nM
same,TGI,ACHN renal,52200 nM
same,GI50,OVCAR-4 ovarian,13.7 nM
same,TGI,OVCAR-4 ovarian,> 100000 nM
same,GI50,SN12C renal,< 10 nM
same,TGI,SN12C renal,11900 nM
same,GI50,NCI-H522 lung,< 10 nM
same,TGI,NCI-H522 lung,< 10 nM
same,GI50,SK-MEL-5 melanoma,< 10 nM
same,TGI,SK-MEL-5 melanoma,< 10 nM
same,GI50,CCRF-CEM leukemia,< 10 nM
same,TGI,CCRF-CEM leukemia,< 10 nM
same,GI50,SW-620 colon,< 10 nM
same,TGI,SW-620 colon,> 100000 nM
same,GI50,SK-MEL-28 melanoma,< 10 nM
same,TGI,SK-MEL-28 melanoma,> 100000 nM
same,GI50,MDA-MB-468 breast,13.3 nM
same,TGI,MDA-MB-468 breast,29.7 nM
same,GI50,TK-10 renal,< 10 nM
same,TGI,TK-10 renal,> 100000 nM
same,GI50,UACC-62 melanoma,< 10 nM
same,TGI,UACC-62 melanoma,> 100000 nM
same,GI50,LOX IMVI melanoma,12.2 nM
same,TGI,LOX IMVI melanoma,80.3 nM
same,GI50,SF-268 CNS,< 10 nM
same,TGI,SF-268 CNS,78.5 nM
same,GI50,K-562 leukemia,< 10 nM
same,TGI,K-562 leukemia,12.3 nM
same,GI50,NCI-H460 NSCLC,17.3 nM
same,TGI,NCI-H460 NSCLC,36 nM
same,GI50,UACC-257 melanoma,< 10 nM
same,TGI,UACC-257 melanoma,> 100000 nM
same,GI50,NCI-H226 lung,< 10 nM
same,TGI,NCI-H226 lung,25.3 nM
same,GI50,HCC-2998 colon,< 10 nM
same,TGI,HCC-2998 colon,29.7 nM
same,GI50,786-0 renal,< 10 nM
same,TGI,786-0 renal,58.2 nM
same,GI50,PC-3 prostate,< 10 nM
same,TGI,PC-3 prostate,> 100000 nM
same,GI50,HL-60(TB) leukemia,< 10 nM
same,TGI,HL-60(TB) leukemia,< 10 nM
same,GI50,MDA-MB-231 breast,< 10 nM
same,TGI,MDA-MB-231 breast,> 100000 nM
same,GI50,HS 578T breast,< 10 nM
same,TGI,HS 578T breast,< 10 nM
same,GI50,RPMI-8226 leukemia,< 10 nM
same,TGI,RPMI-8226 leukemia,< 10 nM
same,GI50,NCI-H23 lung,< 10 nM
same,TGI,NCI-H23 lung,16.3 nM
same,GI50,NCI-H322M lung,< 10 nM
same,TGI,NCI-H322M lung,> 100000 nM
same,GI50,HCT-15 colon,< 10 nM
same,TGI,HCT-15 colon,92.2 nM
same,GI50,RXF 393 renal,< 10 nM
same,TGI,RXF 393 renal,< 10 nM
same,GI50,MOLT-4 leukemia,< 10 nM
same,TGI,MOLT-4 leukemia,< 10 nM
same,GI50,DU-145 prostate,< 10 nM
same,TGI,DU-145 prostate,70.1 nM
same,GI50,UO-31 renal,< 10 nM
same,TGI,UO-31 renal,> 100000 nM

# From PubChem BioAssay (NCI)
